According to ChEMBL document CHEMBL6109128, “Copper-KRAS-COX2 Axis: A Therapeutic Vulnerability in Pancreatic Cancer” (J Med Chem, 2025):
Activity calls are given as the source filed them. The rule behind the calls is not given here.

Key:
[1] = Drug concentration in mouse liver at 15 mg/kg, iv measured at 7 hrs; assay type: ADME, organism-based; conditions: read-out: Ct
[2] = Drug concentration in mouse kidney at 30 mg/kg, po measured at 24 hrs; assay type: ADME, organism-based; conditions: read-out: Ct
CT26 [3] = experiment: Antitumor activity against mouse CT26 cells implanted in BALB/c mouse assessed as increase in cleaved PARP level at 140 mg/kg, po administered for 3 days; assay type: functional, organism-based; conditions: time 3.0 day
[4] = Drug concentration in mouse kidney at 15 mg/kg, iv measured at 24 hrs; assay type: ADME, organism-based; conditions: read-out: Ct
[5] = Drug concentration in mouse liver at 30 mg/kg, po measured at 24 hrs; assay type: ADME, organism-based; conditions: read-out: Ct
[6] = Drug concentration in mouse heart at 30 mg/kg, po measured at 7 hrs; assay type: ADME, organism-based; conditions: read-out: Ct
CT26 [7] = experiment: Antitumor activity against mouse CT26 cells implanted in BALB/c mouse assessed as increase in cleaved caspase-3 level at 50 mg/kg, po measured after 14 days; assay type: functional, organism-based; conditions: time 14.0 day
[8] = Toxicity in BALB/c mouse assessed as kidney damage at 20 mg/kg, po measured after 29 days by H and E staining based analysis; assay type: organism-based; conditions: in vivo, 696 h, time 29 day
CT26 [9] = experiment: Antitumor activity against mouse CT26 cells implanted in BALB/c mouse assessed as increase in cleaved PARP level at 50 mg/kg, po measured after 14 days; assay type: functional, organism-based; conditions: time 14.0 day
[10] = Toxicity in BALB/c mouse assessed as pancrease damage at 20 mg/kg, po measured after 29 days by H and E staining based analysis; assay type: organism-based; conditions: in vivo, 696 h, time 29 day
[11] = Drug concentration in mouse plasma at 30 mg/kg, po measured at 7 hrs; assay type: ADME, organism-based
KPC2 = experiment: Antitumor activity against mouse KPC2 cells implanted in FVB mouse assessed as reduction in tumor burden at 25 mg/kg, po measured after 14 days; assay type: functional, organism-based; conditions: time 14.0 day
[12] = Toxicity in BALB/c mouse assessed as colon damage at 20 mg/kg, po measured after 29 days by H and E staining based analysis; assay type: organism-based; conditions: in vivo, 696 h, time 29 day
[13] = Toxicity in BALB/c mouse assessed as heart damage at 20 mg/kg, po measured after 29 days by H and E staining based analysis; assay type: organism-based; conditions: in vivo, 696 h, time 29 day
[14] = Drug concentration in mouse liver at 30 mg/kg, po measured at 7 hrs; assay type: ADME, organism-based; conditions: read-out: Ct
[15] = Drug concentration in mouse heart at 15 mg/kg, iv measured at 7 hrs; assay type: ADME, organism-based; conditions: read-out: Ct
[16] = Drug concentration in mouse heart at 30 mg/kg, po measured at 24 hrs; assay type: ADME, organism-based; conditions: read-out: Ct
[17] = Drug concentration in mouse liver at 15 mg/kg, iv measured at 24 hrs; assay type: ADME, organism-based; conditions: read-out: Ct
[18] = Drug concentration in mouse kidney at 15 mg/kg, iv measured at 7 hrs; assay type: ADME, organism-based; conditions: read-out: Ct
[19] = Toxicity in BALB/c mouse assessed as spleen damage at 20 mg/kg, po measured after 29 days by H and E staining based analysis; assay type: organism-based; conditions: in vivo, 696 h, time 29 day
[20] = Drug concentration in mouse plasma at 15 mg/kg, iv measured at 24 hrs; assay type: ADME, organism-based
Panc02 = experiment: Antitumor activity against mouse Panc02 cells xenografted in C57BL/6 mouse assessed as tumor growth inhibition at 20 to 40 mg/kg, ip measured for 21 to 28 days; assay type: functional, organism-based; conditions: dose 20-40 mg/kg, time 21-28 day
CT26 [21] = experiment: Antitumor activity against mouse CT26 cells implanted in BALB/c mouse assessed as increase in cleaved PARP level at 140 mg/kg, iv administered for 3 days; assay type: functional, organism-based; conditions: time 3.0 day
[22] = Toxicity in BALB/c mouse assessed as stomach damage at 20 mg/kg, po measured after 29 days by H and E staining based analysis; assay type: organism-based; conditions: in vivo, 696 h, time 29 day
CT26 [23] = experiment: Antitumor activity against mouse CT26 cells implanted in BALB/c mouse assessed as increase in animal survival at 100 mg/kg, po measured after 14 days; assay type: functional, organism-based; conditions: time 14.0 day
HCT-116 = experiment: Induction of apoptosis in human HCT-116 cells assessed as upregulation of cleaved PARP level measured for 48 hrs by Western blot analysis; assay type: functional, cell-based; conditions: dose 10.0 µM
[24] = Toxicity in BALB/c mouse assessed as lung damage at 20 mg/kg, po measured after 29 days by H and E staining based analysis; assay type: organism-based; conditions: in vivo, 696 h, time 29 day

With `N[C@@H]1[C@H]2CN(c3cnc(C(=O)Nc4cc(F)cc5cccnc45)cn3)C[C@@H]12` the concentration at 7 h [1] was 2140 ng/g, the concentration at 24 h [2] was 137 ng/g and the Activity (CT26 [3]) was “Active”. It also gave a concentration at 24 h [4] of 53 ng/g, a concentration at 24 h [5] of 92 ng/g and a concentration at 7 h [6] of 1840 ng/g. The Activity (CT26 [7]) was “Active”, the Activity [8] was “Non-toxic” and the Activity (CT26 [9]) was “Active”. The Activity [10] was “Non-toxic”, the concentration at 7 h [11] was 293 ng/mL and the Activity (KPC2) was “Active”. The Activity [12] was “Non-toxic”, the Activity [13] was “Non-toxic” and the concentration at 7 h [14] was 5530 ng/g. It also gave a concentration at 7 h [15] of 882 ng/g, a concentration at 24 h [16] of 57 ng/g and a concentration at 24 h [17] of 48 ng/g. The concentration at 7 h [18] was 2690 ng/g, the Activity [19] was “Non-toxic” and the concentration at 24 h [20] was 7 ng/mL. For the same compound, the TGI (Panc02) was “Active”, the Activity (CT26 [21]) was “Active” and the Activity [22] was “Non-toxic”. The Activity (CT26 [23]) was “Active”, the Activity (HCT-116) was “Dose-dependent-effect” and the Activity [24] was “Non-toxic”.
